Consider 2 compounds from patent US9849154B2, “Synergistic combination of alanine-glutamine, hyaluronic acid and oat extract and the use thereof in a composition intended for healing wounds and repairing skin lesions” (PIERRE FABRE DERMO-COSMETIQUE, priority 2013, dated 2017).

In the test the test system is HaCaT human keratinocyte line. The experiment in a line: Oris Cell Migration Assay: migration of keratinocytes. The format is cell-based. To be noted: DMEM 0% FCS; for % Migration (control 0% FCS = 100) / Average ± SD (fluorescence intensity, FI): 24 h. The text has this:
The objective of this test was to evaluate the effect of hyaluronic acid, oat seedling extract, L-alanyl-L-glutamine and combinations thereof on the migration of keratinocytes using the Oris Cell Migration Assay kit (Platypus Technologies).
The spontaneously immortalised HaCaT human keratinocyte line, frequently cited as reference model in the literature was used.
The protocol used for the study of cell migration is based on the use of a 96 well kit, the Oris Cell Migration Assay (Platypus technologies—TEBU), enabling the miniaturisation and the quantification of this cellular process.
The principle of this test consists in studying cell migration towards the centre of the wells of the 96 well plate. It consists in placing a stopper in the wells, in order to create a 2 mm diameter detection zone. Then removing the stoppers once cells have properly adhered to the surface around them, and thus to enable cells to migrate towards the detection zone. The plates without stoppers and with the active ingredients are incubated at 37° C. for 24 hours in DMEM (Dulbecco's Modified Eagle Medium) 0% FCS (foetal calf serum). The quantity of cells situated in the zone where the stopper was is analysed in order to evaluate the migration of the cells. A mask makes it possible to visualise and to count uniquely the cells situated in this zone. For each condition, the average is determined on 6 to 8 wells.
The cells were incubated in FCS-free medium.
• EGF: 33 ng/ml, • oat seedling extract: 10 or 30 μg/ml,
Filtering. Concentration by drying until a dry extract is obtained. • sodium hyaluronate (molecular weight 250-450 kDa): 20 or 60 μg/ml, • L-alanyl-L-glutamine: 40 or 90 μg/ml. Analysis of the Results
The Results are Expressed: • In fluorescence intensity (FI), proportional to the quantity of cells having migrated. • In percentage activity compared to the control 0% FCS.
[formula] Statistical Analyses
Statistical analyses by the Dunnett test were carried out on the crude migration values. This test then gives “p value” values characterising the significance of the results obtained for different conditions. The degree of significance was fixed at
The results at different concentrations of the effect of oat seedling extract, hyaluronic acid and L-alanyl-L-glutamine, alone or in combination on the migration of keratinocytes are indexed in tables 1 and 2 then represented in the single FIGURE. The fluorescence intensity values represented on this curve correspond to an average of 6 to 8 measurements carried out during an experiment representative of 3 independent manipulations.

Residues, ends and D or L forms follow the SMILES beside them.

As for “EGF: EGF, positive control of the migration experiments, 33 ng/ml”, the “% Migration (control 0% FCS = 100)” value (Table 1, EGF 33 ng/ml) turned out to be 216% and the “% Migration (control 0% FCS = 100)” value (Table 2, EGF 33 ng/ml, * p < 0.05 versus control) is 301 * %. For the same compound, the “Average ± SD (fluorescence intensity, FI)” value reads like this: (Table 1, EGF 33 ng/ml) 2569±; (Table 2, EGF 33 ng/ml) 3553 ± 1556. In addition, the “effect on the migration of keratinocytes (in words)” value (positive control, EGF 33 ng/ml) was “induces the migration of keratinocytes”.
Take `C[C@H](N)C(=O)N[C@@H](CCC(N)=O)C(=O)O` [ALANYL GLUTAMINE, L-alanyl-L-glutamine] (H-Ala-Gln-OH): where the note is “L-alanyl-L-glutamine alone, 40 or 90 μg/ml”, the “effect on the migration of keratinocytes (in words)” value was “induces the migration of keratinocytes in a concentration-dependent manner”. For the same compound, the “% Migration (control 0% FCS = 100)” value turned out to be 200% (Table 1, 40 μg/ml) and 194% (Table 2, 90 μg/ml). Moreover, the “Average ± SD (fluorescence intensity, FI)” value runs as follows: (Table 1, 40 μg/ml) 2471 ± 788; (Table 2, 90 μg/ml) 2586 ± 1092.
